From US7632858B2 (priority 2002, dated 2009)

Experiments:
AR = target: T1, AR (Rattus norvegicus, UniProt P15207)
T1 sequence (P15207 1-902): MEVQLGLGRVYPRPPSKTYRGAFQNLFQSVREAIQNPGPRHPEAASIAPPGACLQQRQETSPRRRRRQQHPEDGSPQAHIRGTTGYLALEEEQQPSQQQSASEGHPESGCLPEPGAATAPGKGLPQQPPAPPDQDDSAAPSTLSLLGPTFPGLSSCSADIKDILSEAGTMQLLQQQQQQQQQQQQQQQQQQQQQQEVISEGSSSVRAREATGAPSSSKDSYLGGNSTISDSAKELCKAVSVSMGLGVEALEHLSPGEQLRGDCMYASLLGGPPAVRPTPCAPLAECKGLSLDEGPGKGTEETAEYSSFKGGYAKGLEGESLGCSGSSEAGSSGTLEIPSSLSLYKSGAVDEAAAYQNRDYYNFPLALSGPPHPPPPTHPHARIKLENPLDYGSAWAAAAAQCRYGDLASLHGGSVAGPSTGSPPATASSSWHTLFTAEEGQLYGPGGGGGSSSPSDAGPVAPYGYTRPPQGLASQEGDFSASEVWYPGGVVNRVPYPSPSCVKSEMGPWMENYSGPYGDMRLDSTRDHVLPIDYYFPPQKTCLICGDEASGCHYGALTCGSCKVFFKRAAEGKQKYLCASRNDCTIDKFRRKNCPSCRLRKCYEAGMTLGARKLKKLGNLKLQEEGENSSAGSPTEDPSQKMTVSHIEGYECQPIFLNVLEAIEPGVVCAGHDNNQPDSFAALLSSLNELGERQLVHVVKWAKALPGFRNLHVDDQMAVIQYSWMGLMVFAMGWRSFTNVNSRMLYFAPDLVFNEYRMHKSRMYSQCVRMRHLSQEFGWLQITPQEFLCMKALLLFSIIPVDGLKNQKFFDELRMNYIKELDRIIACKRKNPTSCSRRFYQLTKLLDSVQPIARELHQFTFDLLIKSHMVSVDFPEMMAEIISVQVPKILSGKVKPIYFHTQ
Text: The activity of compounds of the present invention as AR agonists was investigated in an immature male rat model, a recognized test of anabolic effects in muscle and sustaining effects in sex organs for a given compound, as described in L. G. Hershberger et al., Proc. Soc. […] Biol. Med., 83, 175 (1953); B. L. Beyler et al, “Methods for evaluating anabolic and catabolic agents in laboratory animals”, J. Amer. Med. Women's Ass., 23, 708 (1968); H. Fukuda et al., “Investigations of the levator ani muscle as an anabolic steroid assay”, Nago Dai. […] Nem. 14, 84 (1966) the disclosures of which are herein incorporated by reference.
The basis of this assay lies in the well-defined action of androgenic agents on the maintenance and growth of muscle tissues and sexual accessory organs in animals and man. […] J. Anat. […] Ital. Biol. Sper. […] II. […] Ital. Biol. Sper. 42, 1600 (1966); A. Boris et al., Steroids 15, 61 (1970). As described above, the effects of androgens on maintenance of male sexual accessory organs, such as the prostate and seminal vesicles, is well described. Castration results in rapid involution and atrophy of the prostate and seminal vesicles. This effect can be reversed by exogenous addition of androgens. […]

wild type AR = settings: read-out: Kd for [3H]-DHT; MDA 453 cells, Scatchard analysis
Description: For the whole-cell binding assay, human LNCaP cells (T877A mutant AR) or MDA 453 (wild type AR) in 96-well microtiter plates containing RPMI 1640 or DMEM supplemented with 10% charcoal stripped CA-FBS (Cocaleco Biologicals) respectively, were incubated at 37° C. to remove any endogenous ligand that might be complexed with the receptor in the cells.
For the saturation analysis, the difference between the total binding and the non-specific binding, was defined as specific binding. […] See e.g. D. Rodbard, Mathematics and statistics of ligand assays: an illustrated guide: In: J. Langon and J. J. Clapp, eds., Ligand Assay, Masson Publishing U.S.A., Inc., New York, pp. 45-99, (1981), the disclosure of which is herein incorporated by reference.
Two replicates were used for each sample.

Molecule	potency relative to free T (AR; TP versus free T)	EC50 (increase in organ weight) (AR; immature castrated rats)	Kd (wild type AR)
CCC(=O)O[C@H]1CC[C@H]2[C@@H]3CCC4=CC(=O)CC[C@]4(C)[C@H]3CC[C@]12C [TP, testosterone propionate]	10-30 fold	~0.03 mg	
tritiated dihydrotestosterone [[^3H]-DHT]			0.7 nM
